Test in all cases: Two-step fluorescence assay for determination of IC50
Common to all, as to type: biochemical

In one test the target is T1, HDAH (Alcaligenes sp., UniProt Q70I53).
T1 sequence (Q70I53 1-369): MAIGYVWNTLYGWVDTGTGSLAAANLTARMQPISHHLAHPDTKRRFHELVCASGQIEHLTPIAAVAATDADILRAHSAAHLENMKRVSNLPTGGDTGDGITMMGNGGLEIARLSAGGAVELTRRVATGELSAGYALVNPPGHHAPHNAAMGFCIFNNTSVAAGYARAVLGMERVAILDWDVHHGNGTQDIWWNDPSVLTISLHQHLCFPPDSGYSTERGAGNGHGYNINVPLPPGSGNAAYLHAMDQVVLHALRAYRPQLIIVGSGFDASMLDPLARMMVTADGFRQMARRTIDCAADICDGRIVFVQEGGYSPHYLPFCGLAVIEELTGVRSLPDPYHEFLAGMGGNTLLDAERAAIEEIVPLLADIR
The procedure:
(§1) In order to evaluate the inhibitory characteristics of example compounds of the invention, IC50 values were determined for such compounds. […] A two-step assay was used for this purpose.
(§2) To obtain the IC50 value for an individual compound/HDAC pair, a two-step assay can be performed based on a fluorescence signal. In principle, an ε-acetylated lysine substrate is deacetylated by histone-deacetylases in the first step. Trypsin releases detectable 7-amino-4-methylcoumarin (ex = excitation wavelength: 390 nm, em = emission wavelength: 460 nm) by cleaving the substrate at the deacetylated lysine in a subsequent reaction^[9]. The enzyme activity is inhibited by a suitable HDACi.
(§3) The obtained data are interpreted using a four parameter fit. Based on this fit, the IC50 value can be estimated. Analysis ot the data and calculation of the IC50 values was accomplished using a four-parameter logistic model protocol as previously described by Vølund^[16]. For nonlinear fits the Levenberg-Marquardt algorithm was applied^[17],[18]. […] Table 1: IC50 values in µM for synthesized compounds of the invention with a perfluorinated linker. […] HDAH = HDAC-like amidohydrolase

The target in the next test is T2, HDAC6 (Homo sapiens, UniProt Q9UBN7).
T2 sequence (Q9UBN7 1-1215): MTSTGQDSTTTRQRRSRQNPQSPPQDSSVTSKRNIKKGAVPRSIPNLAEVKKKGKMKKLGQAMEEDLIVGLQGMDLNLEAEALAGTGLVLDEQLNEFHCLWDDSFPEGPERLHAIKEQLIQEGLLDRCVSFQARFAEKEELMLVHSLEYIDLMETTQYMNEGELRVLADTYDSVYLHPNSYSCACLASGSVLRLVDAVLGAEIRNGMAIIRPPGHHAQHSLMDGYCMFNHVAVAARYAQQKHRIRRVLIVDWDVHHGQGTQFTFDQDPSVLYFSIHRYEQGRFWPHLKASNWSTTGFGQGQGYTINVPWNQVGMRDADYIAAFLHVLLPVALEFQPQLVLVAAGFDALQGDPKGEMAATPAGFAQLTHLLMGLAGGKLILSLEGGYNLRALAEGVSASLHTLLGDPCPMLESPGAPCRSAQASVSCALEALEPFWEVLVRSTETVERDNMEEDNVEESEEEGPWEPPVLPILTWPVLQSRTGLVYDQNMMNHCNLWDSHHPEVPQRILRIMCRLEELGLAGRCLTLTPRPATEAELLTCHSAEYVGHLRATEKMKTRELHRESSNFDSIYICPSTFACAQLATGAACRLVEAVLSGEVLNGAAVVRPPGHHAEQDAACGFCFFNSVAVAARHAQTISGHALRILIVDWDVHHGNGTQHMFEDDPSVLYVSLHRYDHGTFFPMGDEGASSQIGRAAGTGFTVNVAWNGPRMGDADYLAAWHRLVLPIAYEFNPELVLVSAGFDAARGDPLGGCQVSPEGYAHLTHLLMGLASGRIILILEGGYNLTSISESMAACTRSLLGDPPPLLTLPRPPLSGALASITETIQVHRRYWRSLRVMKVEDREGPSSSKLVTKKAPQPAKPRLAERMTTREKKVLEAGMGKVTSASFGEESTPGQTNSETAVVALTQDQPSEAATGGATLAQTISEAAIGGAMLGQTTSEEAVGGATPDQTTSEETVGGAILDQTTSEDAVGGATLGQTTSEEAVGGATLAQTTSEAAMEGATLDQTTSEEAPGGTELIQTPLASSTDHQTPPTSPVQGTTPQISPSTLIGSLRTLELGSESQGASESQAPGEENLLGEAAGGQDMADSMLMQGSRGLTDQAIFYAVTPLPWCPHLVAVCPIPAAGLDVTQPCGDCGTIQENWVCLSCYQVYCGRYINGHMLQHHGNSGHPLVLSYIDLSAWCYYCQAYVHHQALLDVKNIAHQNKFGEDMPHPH
The method, then: as §1, §2, §3

A further test addresses T3, HDAC8 (Homo sapiens, UniProt Q9BY41).
T3 sequence (Q9BY41 1-377): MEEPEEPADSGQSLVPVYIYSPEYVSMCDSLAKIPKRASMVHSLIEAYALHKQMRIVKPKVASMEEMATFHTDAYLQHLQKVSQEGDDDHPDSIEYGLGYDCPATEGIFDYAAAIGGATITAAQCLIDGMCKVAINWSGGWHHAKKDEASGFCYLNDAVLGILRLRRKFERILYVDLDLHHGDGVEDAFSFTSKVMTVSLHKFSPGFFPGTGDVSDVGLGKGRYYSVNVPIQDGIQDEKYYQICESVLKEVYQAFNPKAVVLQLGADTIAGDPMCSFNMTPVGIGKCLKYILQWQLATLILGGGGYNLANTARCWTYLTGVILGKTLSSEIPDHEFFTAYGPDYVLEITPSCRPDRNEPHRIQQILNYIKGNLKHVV
The method, then:
as §1, §2, §3

Another test has as its target HDAC1 (Homo sapiens, UniProt Q13547). The method, then:
as §1, §2, §3

The next test addresses T4, HDAC7 (Homo sapiens, UniProt Q8WUI4).
T4 sequence (Q8WUI4 1-952): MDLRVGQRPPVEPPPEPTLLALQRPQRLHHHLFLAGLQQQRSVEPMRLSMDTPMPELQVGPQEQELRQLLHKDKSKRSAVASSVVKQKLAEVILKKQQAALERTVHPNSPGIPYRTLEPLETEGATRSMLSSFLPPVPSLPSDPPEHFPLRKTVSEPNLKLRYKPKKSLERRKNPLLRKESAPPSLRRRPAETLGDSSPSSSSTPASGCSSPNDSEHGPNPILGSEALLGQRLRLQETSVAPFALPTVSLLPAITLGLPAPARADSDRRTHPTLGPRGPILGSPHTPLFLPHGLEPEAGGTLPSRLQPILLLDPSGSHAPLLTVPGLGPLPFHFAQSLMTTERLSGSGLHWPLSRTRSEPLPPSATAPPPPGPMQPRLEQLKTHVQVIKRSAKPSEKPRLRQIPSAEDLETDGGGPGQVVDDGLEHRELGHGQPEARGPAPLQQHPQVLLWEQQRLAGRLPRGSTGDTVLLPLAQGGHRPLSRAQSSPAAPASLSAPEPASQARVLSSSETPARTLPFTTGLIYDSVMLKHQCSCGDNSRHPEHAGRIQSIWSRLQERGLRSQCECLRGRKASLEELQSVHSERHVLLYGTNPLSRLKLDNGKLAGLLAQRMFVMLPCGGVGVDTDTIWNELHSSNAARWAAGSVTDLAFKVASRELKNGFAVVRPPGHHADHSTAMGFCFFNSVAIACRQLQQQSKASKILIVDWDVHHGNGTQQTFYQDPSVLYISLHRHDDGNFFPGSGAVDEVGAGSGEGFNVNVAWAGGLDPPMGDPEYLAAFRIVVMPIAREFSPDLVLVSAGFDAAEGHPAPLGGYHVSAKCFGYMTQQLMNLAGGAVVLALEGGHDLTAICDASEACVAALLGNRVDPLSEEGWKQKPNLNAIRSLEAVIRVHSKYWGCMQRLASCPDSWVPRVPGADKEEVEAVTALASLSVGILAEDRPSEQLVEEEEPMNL
The procedure:
as §1, §2, §3

Where [1] appears, read: HDAC-like amidohydrolase, ε-acetylated lysine substrate, trypsin release of 7-amino-4-methylcoumarin, four parameter fit, read-out: IC50 values HDAH.
Setting [2] is: ε-acetylated lysine substrate, trypsin release of 7-amino-4-methylcoumarin, four parameter fit, read-out: IC50 values HDAC6.
The mark [3] stands for this setting: ε-acetylated lysine substrate, trypsin release of 7-amino-4-methylcoumarin, four parameter fit, read-out: IC50 values HDAC8.
The mark [4] stands for this setting: ε-acetylated lysine substrate, trypsin release of 7-amino-4-methylcoumarin, four parameter fit, read-out: IC50 values HDAC1.
The mark [5] stands for this setting: ε-acetylated lysine substrate, trypsin release of 7-amino-4-methylcoumarin, four parameter fit, read-out: IC50 values HDAC7.

Structures are written as SMILES. Where two headings read alike, the source gives them in different places.

Broadly, the IC50 is the concentration at which inhibition is half-maximal.

Chain of HDAC1 (Q13547 whole entry): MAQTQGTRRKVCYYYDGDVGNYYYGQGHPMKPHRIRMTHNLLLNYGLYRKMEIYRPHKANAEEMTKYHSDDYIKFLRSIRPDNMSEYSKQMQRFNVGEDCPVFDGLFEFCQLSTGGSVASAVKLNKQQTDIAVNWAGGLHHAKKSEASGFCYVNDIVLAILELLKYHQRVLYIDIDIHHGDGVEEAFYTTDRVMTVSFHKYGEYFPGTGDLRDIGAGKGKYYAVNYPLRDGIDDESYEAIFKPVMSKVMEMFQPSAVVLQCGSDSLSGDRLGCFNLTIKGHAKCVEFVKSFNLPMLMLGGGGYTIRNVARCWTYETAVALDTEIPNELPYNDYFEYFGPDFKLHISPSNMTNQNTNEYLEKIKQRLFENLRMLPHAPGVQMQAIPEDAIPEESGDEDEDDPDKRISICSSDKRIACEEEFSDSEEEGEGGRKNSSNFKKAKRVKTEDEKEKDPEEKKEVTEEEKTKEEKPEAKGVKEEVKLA

For `O=C(NO)C(F)(F)C(F)(F)C(F)(F)C(F)(F)C(F)(F)C(F)(F)C(=O)Nc1ccc(-c2cn(-c3ccccc3)nn2)cc1` [LU 233, 2,2,3,3,4,4,5,5,6,6,7,7-Dodecafluorooctanedioic acid hydroxyamide {4-[1-phenyl-1H-(1,2,3)triazol-4-yl]phenyl}amide], the half-inhibitory concentration (IC50) was 16.9 µM at HDAH (setting [1]); 9.81 µM on HDAC6 (setting [2]); above 100 µM at HDAC8 (setting [3]); above 100 µM at HDAC1 (setting [4]); 42.2 µM on HDAC7 (setting [5]).
For `CC(=O)Nc1ccc(NC(=O)C(F)(F)C(F)(F)C(F)(F)C(F)(F)C(F)(F)C(F)(F)C(=O)NO)cc1` [LU224, 2,2,3,3,4,4,5,5,6,6,7,7-Dodecafluorooctanedioic acid (4-acetylaminophenyl)-amide hydroxyamide], the IC50 at HDAH (setting [1]) came to 3.41 µM; at HDAC6 (setting [2]), 10.5 µM; at HDAC8 (setting [3]), 76.2 µM; on HDAC1 (setting [4]), 21.8 µM; at HDAC7 (setting [5]), 21.5 µM.
In the case of `Cc1ccc(NC(=O)C(F)(F)C(F)(F)C(F)(F)C(F)(F)C(F)(F)C(F)(F)C(=O)NO)cc1C` [LU228, 2,2,3,3,4,4,5,5,6,6,7,7-Dodecafluorooctanedioic acid (3,4-dimethylphenyl)-amide hydroxyamide], the IC50 on HDAH (setting [1]) turned out to be 0.66 µM; at HDAC6 (setting [2]) it was 7.8 µM; at HDAC8 (setting [3]), 22.8 µM; on HDAC1, 10 µM; on HDAC7, 5.51 µM.
Take `N#Cc1ccc(NC(=O)C(F)(F)C(F)(F)C(F)(F)C(F)(F)C(F)(F)C(F)(F)C(=O)NO)cc1` [LU225 A, 2,2,3,3,4,4,5,5,6,6,7,7-Dodecafluorooctanedioic acid (4-cyanophenyl)amide hydroxyamide]: the IC50 on HDAH was 0.7 µM; on HDAC6 (setting [2]), above 100 µM; on HDAC8 (setting [3]), 73.9 µM; at HDAC1 (setting [4]), 21.8 µM; at HDAC7 (setting [5]), 53.7 µM.
Regarding `O=C(NO)C(F)(F)C(F)(F)C(F)(F)C(F)(F)C(F)(F)C(F)(F)C(=O)Nc1ccccc1` [LU210, 2,2,3,3,4,4,5,5,6,6,7,7-Dodecafluorooctanedioic acid hydroxyamide phenyl-amide], the concentration for half-maximal inhibition (IC50) at HDAH (setting [1]) came out at 1.67 µM; at HDAC6 (setting [2]) it was 12.5 µM; against HDAC1 it was 17.9 µM; on HDAC7, 14.8 µM.
In the case of `O=C(NO)C(F)(F)C(F)(F)C(F)(F)C(F)(F)C(F)(F)C(F)(F)C(=O)Nc1ccc(Cl)cc1` [LU223, 2,2,3,3,4,4,5,5,6,6,7,7-Dodecafluorooctanedioic acid (4-chlorophenyl)amide hydroxyamide], the half-maximal inhibitory concentration (IC50) against HDAH was found to be 0.72 µM; at HDAC6, 26.3 µM; on HDAC8 (setting [3]) it was 73 µM; at HDAC1 (setting [4]), 15.1 µM; at HDAC7 (setting [5]) it was 26.8 µM.
For `O=C(NO)C(F)(F)C(F)(F)C(F)(F)C(F)(F)C(F)(F)C(F)(F)C(=O)Nc1ccc2ccc3cccc4ccc1c2c34` [LU234, 2,2,3,3,4,4,5,5,6,6,7,7-Dodecafluorooctanedioic acid hydroxyamide pyren-1-ylamide], the IC50 at HDAH (setting [1]) was 1.48 µM; at HDAC6 (setting [2]), 20.2 µM; against HDAC8, 77.8 µM; on HDAC1 (setting [4]), 28.3 µM; on HDAC7 (setting [5]), above 100 µM.
`O=C(NO)C(F)(F)C(F)(F)C(F)(F)C(F)(F)C(F)(F)C(F)(F)C(=O)Nc1ccc(I)cc1` [LU227, 2,2,3,3,4,4,5,5,6,6,7,7-Dodecafluorooctanedioic acid hydroxyamide (4-iodo-phenyl)amide]: the IC50 at HDAH (setting [1]) is 0.91 µM; at HDAC6 (setting [2]), 5.13 µM; at HDAC8 (setting [3]) it was 75.8 µM; at HDAC1 (setting [4]), 16.9 µM; at HDAC7 (setting [5]) it was 6.86 µM.
Regarding `O=C(NO)C1CCCCC1C(=O)Nc1ccccc1` (stereo not shown) [RK216, reference compound], the concentration for half-maximal inhibition (IC50) was 34.8 µM against HDAH; 44 µM against HDAC6; above 100 µM at HDAC8; above 100 µM on HDAC1; above 100 µM against HDAC7.
As for `CCc1cccc(NC(=O)C(F)(F)C(F)(F)C(F)(F)C(F)(F)C(F)(F)C(F)(F)C(=O)NO)c1` [LU232, 2,2,3,3,4,4,5,5,6,6,7,7-Dodecafluorooctanedioic acid (3-ethylphenyl)amide hydroxyamide], the 50% inhibitory concentration (IC50) at HDAH (setting [1]) worked out at 9.18 µM; on HDAC6, 1.55 µM; on HDAC8 (setting [3]) it was 21.3 µM; on HDAC1, 19.9 µM; on HDAC7 (setting [5]) it was 4.97 µM.

The values above are taken from EP2486923B1, “Histone deacetylase (HDAC) inhibiting compounds and method of making same” (Dr. Felix Jäger und Dr. Stefan Drinkuth Laborgemeinschaft …, priority 2011, dated 2012).
